How the values were obtained:
Assay in all cases: relative viability (nuclei count vs DMSO), 5 days (fraction); higher = more cells survive
Sulindac + Phenformin = compound: CC1=C(CC(=O)O)c2cc(F)ccc2/C1=C\c1ccc([S+](C)[O-])cc1 [Sulindac] + N=C(N)NC(=N)NCCc1ccccc1 [Phenformin] (partner 250 µM)
Summary of the method: (§1)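 Five library-drug doses in √10 steps were combined with a fixed anchor-drug dose, or a single drug was given alone, by pin tool to lung cancer cell lines in 1536-well plates the day after seeding. Nuclei were stained and counted after 5 days. Relative viability is the nuclei count in treated wells over that in vehicle wells, taken as the median of duplicate plates.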

Sulindac + Navitoclax = compound: CC1=C(CC(=O)O)c2cc(F)ccc2/C1=C\c1ccc([S+](C)[O-])cc1 [Sulindac] + CC1(C)CCC(c2ccc(Cl)cc2)=C(CN2CCN(c3ccc(C(=O)NS(=O)(=O)c4ccc(N[C@H](CCN5CCOCC5)CSc5ccccc5)c(S(=O)(=O)C(F)(F)F)c4)cc3)CC2)C1 [Navitoclax] (partner 0.5 µM)
Summary of the method: as §1

[1] = compound: CN[C@@H]1C[C@H]2O[C@@](C)([C@@H]1OC)n1c3ccccc3c3c4c(c5c6ccccc6n2c5c31)C(=O)NC4 [Staurosporine] + CCNC(=O)c1noc(-c2cc(C(C)C)c(O)cc2O)c1-c1ccc(CN2CCOCC2)cc1 [Luminespib] (partner 0.01 µM)
Summary of the method: as §1

[2] = compound: CN[C@@H]1C[C@H]2O[C@@](C)([C@@H]1OC)n1c3ccccc3c3c4c(c5c6ccccc6n2c5c31)C(=O)NC4 [Staurosporine] + CC(=O)Nc1cccc(-n2c(=O)n(C3CC3)c(=O)c3c(Nc4ccc(I)cc4F)n(C)c(=O)c(C)c32)c1 [Trametinib] (partner 0.02 µM)
Summary of the method: as §1

Row | Cell Line | relative viability (Sulindac + Phenformin; first compound 0.08 µM) | relative viability (Sulindac + Phenformin; first compound 0.253 µM) | relative viability (Sulindac + Phenformin; first compound 0.8 µM) | relative viability (Sulindac + Phenformin; first compound 2.53 µM) | relative viability (Sulindac + Phenformin; first compound 8 µM) | relative viability (Sulindac + Navitoclax; first compound 0.08 µM) | relative viability (Sulindac + Navitoclax; first compound 0.253 µM) | relative viability (Sulindac + Navitoclax; first compound 2.53 µM) | relative viability (Sulindac + Navitoclax; first compound 8 µM) | relative viability ([1]; first compound 0.005 µM) | relative viability ([1]; first compound 0.01581 µM) | relative viability ([1]; first compound 0.05 µM) | relative viability ([1]; first compound 0.1581 µM) | relative viability ([1]; first compound 0.5 µM) | relative viability ([2]; first compound 0.005 µM) | relative viability ([2]; first compound 0.01581 µM) | relative viability ([2]; first compound 0.05 µM) | relative viability ([2]; first compound 0.1581 µM) | relative viability ([2]; first compound 0.5 µM) | relative viability (Sulindac + Navitoclax; first compound 0.8 µM)
1 | NCI-H460 | 1.03 | 0.666 | 0.201 | 0.543 | 0.585 | 1.88 | 1.44 | 1.07 | 1.3 | 0.0316 | 0.0208 | 0.0244 | 0.0122 | 0.0179 | 0.0592 | 0.0305 | 0.0206 | 0.0114 | 0.0063 | 
2 | SK-LU-1 | 0.498 | 0.567 | 0.444 | 0.444 | 0.668 | 0.96 | 0.875 | 0.84 | 1.54 | 0.156 | 0.117 |  | 0.117 | 0.108 | 0.253 | 0.15 | 0.172 | 0.187 | 0.12 | 0.694
3 | LOU-NH91 | 0.708 | 0.68 | 0.681 | 0.717 | 0.853 | 0.726 | 0.772 | 0.638 | 0.748 | 0.355 | 0.279 | 0.209 | 0.289 | 0.212 | 0.673 | 0.493 | 0.511 | 0.341 | 0.303 | 0.552
4 | RERF-LC-KJ | 0.43 | 0.418 | 0.414 | 0.455 | 0.45 | 1.23 | 0.983 | 0.749 | 1.11 | 0.97 | 0.671 | 0.266 | 0.222 | 0.237 | 0.795 | 0.604 |  | 0.328 | 0.207 | 0.797
5 | NCI-H2126 | 0.513 | 0.541 | 0.539 | 0.46 | 0.593 | 0.823 | 0.894 | 0.856 | 0.853 | 0.547 | 0.318 | 0.252 | 0.207 | 0.207 | 0.592 | 0.373 | 0.375 | 0.339 | 0.345 | 0.817
6 | LU99A | 0.86 | 0.853 | 0.83 | 0.827 | 1.11 | 0.964 | 0.781 | 0.73 | 0.878 | 0.21 | 0.176 | 0.134 | 0.137 | 0.123 | 0.461 | 0.243 | 0.23 | 0.182 | 0.133 | 0.689

From the supplement of paper PMC10307832
